Data as given in patent publication US20140314904A1, “PRE-SLAUGHTER DIET INCLUDING METHIONINE” (ADISSEO FRANCE S.A.S., priority 2011, published 2014).
Read-outs that look alike come from different tables or passages of the source.

How the values were obtained:
[1] = test system: slaughter pigs; assay: Cooking loss of pork chops; assay type: in vivo, pig; settings: 7 days at 2° C., LS mean ± SEM
Excerpt: Twenty-one slaughter pigs ([Yorkshire×Swedish Landrace]×Hampshire) were raised on a commercial diet. Pigs were randomly assigned to one of three groups (n=7). The groups represented three feeding strategies, namely a Control group which received a standardized diet comprising 0.27% total methionine, and both a DLM and HMTBA group, receiving the same diet as the Control group throughout the feeding period, apart from the fact that they were fed a higher level of methionine (1.1% total methionine) during a seven day finishing period immediately prior to slaughter. The supplements were given in two forms, either as D L-methionine (DLM) or DL-2-hydroxy-4-methylthiobutanoic acid (HMTBA).
Pigs were slaughtered at a commercial slaughter house in Sweden after a resting time of 5 hours. At 45 minutes post mortem, pH (Knick portamess 751 pH-meter with an Ingold LOT glass electrode, Tech Instrumentering ApS, Denmark) and temperature (digital thermometer, Weber, Stephen Nordic, Denmark) were measured in the m. Longissimus dorsi (LD) at the level of the 10th rib. At 48 hours post mortem, the entire back was dissected from the carcass and transported under controlled conditions to the University of Copenhagen for further measurements.
Pork chops were cut perpendicular to the long axis of each LD muscle. Six 3 cm thick pork chops was sliced from each LD. Three were vacuum packed and three were packed in a high-oxygen modified atmosphere. The chops were placed in plastic trays (M71-43A white/PS; 195×144×43 mm in dimension; Frch Plast, Denmark) and placed in vacuum bags (EM-628862; O2 transmission rate=40-50 cm^3/m^2/24 h/bar, CO2 transmission rate=150 cm^3/m^2/24 h/bar, water-vapour transmission rate=2.6 g/m^2/24 h; LogiCon Nordic A/S, Denmark). The ambient air was removed from all vacuum bags using a vacuum machine (type, manufacturer, country). The bags intended for […] were first filled with a gas mixture (80% oxygen/20% carbon dioxide) before being sealed completely, whereas the bags intended for MAP were only partially sealed. […] (until 9 days post mortem). The gas composition was checked (CheckMate 9900, PBI Dansensor, Denmark) before packaging and again prior to opening, at the end of the simulated display period in order to check for leakage. The oxygen-enriched environment was well maintained (83.4%) throughout the display period for all MA packages.
Storage loss was determined as the weight loss percentage at the end of the display period (9 days post mortem) relative to the weight at the day of packaging (two days post mortem). The cooking loss was determined as the weight loss percentage between the pork chops before and after cooking. The results are given as the mean of the three pork chops in each meat pack.

[2] = test system: slaughter pigs; assay: Warner-Bratzler shear force (WBSF), instrumental hardness; assay type: in vivo, pig; settings: 7 days at 2° C., LS mean ± SEM
Procedure: In Example 1 twenty-one pigs were randomly assigned to one of three feeding groups (n=7). The control group received a standardized diet only. The DLM and HMTBA groups received the standardized diet plus a high-methionine supplement (either DLM (i.e. […] At 48 h post mortem, 3 cm thick pork chops were either vacuum packed or sealed in a modified atmosphere (MA; 80% O2) and stored for an additional 7 days at 2° C. Instrumental hardness was measured using the Warner-Bratzler shear force (WBSF; Newton) method. Protein oxidation was measured as the loss of free thiol groups in proteins (nmol thiol per mg protein) using Ellman's reagent. Lipid oxidation was measured as the increase in 2-thiobarbituric acid reactive substances (TBARS; mg malondialdehyde per kg meat). Twenty-one slaughter pigs ([Yorkshire×Swedish Landrace]×Hampshire) were raised on a commercial diet. Pigs were randomly assigned to one of three groups (n=7). […] Pork chops were cut perpendicular to the long axis of each LD muscle. Six 3 cm thick pork chops was sliced from each LD. Three were vacuum packed and three were packed in a high-oxygen modified atmosphere. The chops were placed in plastic trays ([…]-43A white/PS; 195×144×43 mm in dimension; Frch Plast, Denmark) and placed in vacuum bags (EM-628862; […] The ambient air was removed from all vacuum bags using a vacuum machine (type, manufacturer, country). […] (until 9 days post mortem). The gas composition was checked (CheckMate 9900, PBI Dansensor, Denmark) before packaging and again prior to opening, at the end of the simulated display period in order to check for leakage. The oxygen-enriched environment was well maintained (83.4%) throughout the display period for all MA packages. Instrumental hardness was measured using the Warner-Bratzler shear force (WBSF) method. In short, at the end of the display period fresh samples were heated in a water bath in an oven (type, manufacturer, country). The temperature rise was monitored for one sample and the remaining samples were given the time to reach an internal temperature of 75° C. plus five minutes. The samples were cooled down before cores of 1 cm×1 cm×2.5 cm were excised for shear force analysis.

[3] = test system: slaughter weight pigs
Procedure: Pigs ([Yorkshire×Swedish Landrace]×Hampshire)(n=10×3 were fed twice daily 2% of their body weight with the respective diets (either low or high methionine diets), water ad libitum.
Two square stimulating electrodes were placed next to one another (not touching) and infront of the recording electrodes, after which the muscle was stimulated at 10, 20, 60, 150 and 200 Hz and the subsequent responses were recorded. Two leads were placed on either side of the abdomen at a position of the last rib to form a “triangle” with the reference electrode and serve to record both respiratory movements as well as sECG signal.
Using electrodes placed either side of the abdomen at the position of the last rib, and a reference electrode placed on the ear, it was possible to create an Einthoven triangle and to record both an ECG (plus heart rate) and respiration rate through diaphragm movements. The recorded signal was assessed in terms of rate and the Q-T interval (time taken for the ventricles to depolarize and repolarize) using Chart analysis software (AD Instruments, Chalgrove, Oxfordshire, UK).
In addition to the sEMG recordings, we were able to obtain non-invasive measurements of the rate of respiration (breaths/min) and the heart rate (bpm) as well as an analysis of the recorded ECG in terms of the time taken for ventricle depolarization and repolarization, the so-called Q-T interval.
Table 1 presents the effects of 1 weeks dietary supplementation with DLM on the respiration and heart rate of 90-100 kg slaughter weight pigs, as well as the Q-T Interval. Values are the mean of a number of pigs, where “n” represents the number of animals per group. (ns) represents a difference between means that was not quite significant.

[4] = post (n = 6), after 1 weeks dietary supplementation
[5] = pre (n = 6), before supplementation

Compound | Cooking loss ([1]; MAP (80% O2 + 20% CO2)) | Cooking loss ([1]; Vacuum) | Instrumental hardness, WBSF values ([2]; MAP (80% O2 + 20% CO2)) | Instrumental hardness, WBSF values ([2]; Vacuum) | Heart Rate [3, 4] [bpm] | Q-T Interval [3, 4] [ms] | Respiration [3, 4] [breaths/min] | Difference in Q-T Interval: INCREASE by ([3]; post versus pre, P < 0.01) [% P < 0.01] | Difference in Heart Rate: DECREASE by ([3]; post versus pre, ns) | Difference in Respiration: DECREASE by ([3]; post versus pre, ns) | Heart Rate [3, 5] [bpm] | Q-T Interval [3, 5] [ms] | Respiration [3, 5] [breaths/min]
CSCCC(N)C(=O)O (racemic) [DLM, DL-methionine] | 15.82 ± 1.86 ^A g | 21.52 ± 1.86 ^A g | 38.58 ± 3.65 ^A, B N | 28.80 ± 3.65 ^D N | 110.11 | 242.31 | 23.53 | 8.5 | 9% (ns) | 12% (ns) | 121.17 | 223.21 | 26.83
CSCCC(O)C(=O)O (racemic) [HMTBA, 2-hydroxy-4-(methylthio) butanoic acid] | 18.49 ± 1.73 ^A g | 21.35 ± 1.73 ^A g | 43.64 ± 3.65 ^A, B N | 30.55 ± 3.65 ^C, D N |  |  |  |  |  |  |  |  | 
